The target of assay [1] is T1, glucocorticoid receptor (Homo sapiens, UniProt P04150).
T1 construct: containing 50-200 ug of A549 cell extract and 1.86 nM [^3H]-dexamethasone; host or cells: A549 human lung epithelial cells (sonicated cell extract)
T1 sequence (P04150 1-777): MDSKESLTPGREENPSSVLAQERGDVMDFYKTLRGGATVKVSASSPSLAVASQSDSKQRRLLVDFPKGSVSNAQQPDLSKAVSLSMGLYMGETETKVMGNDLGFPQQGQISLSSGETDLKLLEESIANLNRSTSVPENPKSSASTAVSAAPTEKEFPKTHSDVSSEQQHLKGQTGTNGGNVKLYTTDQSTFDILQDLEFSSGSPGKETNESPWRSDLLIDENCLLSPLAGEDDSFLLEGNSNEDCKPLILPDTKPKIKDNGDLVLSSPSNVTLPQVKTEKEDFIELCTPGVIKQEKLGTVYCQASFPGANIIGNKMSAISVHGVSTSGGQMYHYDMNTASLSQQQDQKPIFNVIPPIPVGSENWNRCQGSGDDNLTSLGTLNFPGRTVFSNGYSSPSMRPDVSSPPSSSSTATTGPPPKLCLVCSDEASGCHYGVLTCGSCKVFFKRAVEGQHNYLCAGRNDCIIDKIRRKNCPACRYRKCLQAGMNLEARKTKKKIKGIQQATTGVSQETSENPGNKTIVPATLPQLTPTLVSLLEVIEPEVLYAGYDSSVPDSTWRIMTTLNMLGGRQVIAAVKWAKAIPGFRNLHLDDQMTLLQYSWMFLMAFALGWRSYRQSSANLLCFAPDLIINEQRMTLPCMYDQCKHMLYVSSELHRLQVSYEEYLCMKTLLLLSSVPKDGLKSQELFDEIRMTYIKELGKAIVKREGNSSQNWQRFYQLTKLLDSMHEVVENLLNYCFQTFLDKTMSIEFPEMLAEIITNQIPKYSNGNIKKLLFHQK
Description: Glucocorticoid Receptor Binding Assay ([3H]-dexamethasone, A549 cell extract). To be noted: [3H]-dexamethasone binding, read-out: GR Ki. In short, it runs like this: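 A549 cell extract (50–200 ug) incubated with 1.86 nM [3H]-dexamethasone and test compound for 16 h at 4 °C in Tris-HCl pH 7.2 buffer with glycerol and molybdate. Unbound radioligand removed by dextran-coated charcoal, then supernatant bound counts measured by scintillation.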

Assay [2] deals with T2, human MR (Homo sapiens, UniProt P08235).
T2 construct: The full length human MR gene is cloned from a human kidney or human brain cDNA library; His tag from the pAcHLT vector (own knowledge); made in house; host or cells: Sf9 insect cells (baculovirus, pAcHLT transfer vector)
T2 sequence (P08235 1-984): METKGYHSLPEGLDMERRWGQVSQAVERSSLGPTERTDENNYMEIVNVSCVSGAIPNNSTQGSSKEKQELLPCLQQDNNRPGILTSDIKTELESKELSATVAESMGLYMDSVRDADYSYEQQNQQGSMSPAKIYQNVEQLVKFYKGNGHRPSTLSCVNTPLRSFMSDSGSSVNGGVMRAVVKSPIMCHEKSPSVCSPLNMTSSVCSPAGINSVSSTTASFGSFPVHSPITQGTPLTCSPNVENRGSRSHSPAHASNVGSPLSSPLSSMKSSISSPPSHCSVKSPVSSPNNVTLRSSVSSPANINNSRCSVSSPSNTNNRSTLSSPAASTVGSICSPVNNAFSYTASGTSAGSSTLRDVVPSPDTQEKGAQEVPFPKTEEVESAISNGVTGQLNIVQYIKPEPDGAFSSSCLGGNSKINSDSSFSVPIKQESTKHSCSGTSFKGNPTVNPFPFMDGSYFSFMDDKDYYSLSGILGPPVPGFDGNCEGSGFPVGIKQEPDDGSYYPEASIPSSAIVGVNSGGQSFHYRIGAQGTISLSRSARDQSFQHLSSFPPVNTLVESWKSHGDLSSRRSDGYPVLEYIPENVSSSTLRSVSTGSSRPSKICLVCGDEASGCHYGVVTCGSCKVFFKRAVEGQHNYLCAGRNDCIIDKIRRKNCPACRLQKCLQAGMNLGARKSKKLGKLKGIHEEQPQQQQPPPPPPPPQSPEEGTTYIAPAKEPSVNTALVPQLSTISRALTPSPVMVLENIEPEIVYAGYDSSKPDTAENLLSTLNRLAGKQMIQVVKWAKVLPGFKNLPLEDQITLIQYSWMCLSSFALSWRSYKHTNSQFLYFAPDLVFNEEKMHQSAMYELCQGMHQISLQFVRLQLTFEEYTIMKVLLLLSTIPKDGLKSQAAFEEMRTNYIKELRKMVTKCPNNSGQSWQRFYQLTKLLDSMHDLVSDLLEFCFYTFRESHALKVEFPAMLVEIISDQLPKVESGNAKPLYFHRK
Kind of assay: Mineralocorticoid Receptor Binding Assay ([3H]-aldosterone). Conditions: [3H]-aldosterone binding, human MR expressed in Sf9 cells; read-out: MR Ki. In short, it runs like this:
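Lysate supernatant of Sf9 cells expressing full-length human MR (20-25 μg protein) was incubated with 0.5 nM [3H]-aldosterone and test compound in molybdate/Tris/phosphate/glycerol buffer, pH 7.5, ~16 h at 4 °C. Bound ligand was filtered and counted by scintillation; IC50 is the concentration halving [3H]-aldosterone binding.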

Take `Cc1ccc2c(c1)SCc1ccccc1/C2=C\c1cccc(NS(C)(=O)=O)c1` [Example 749]: the Ki in assay [1] and in assay [2] was less than 500 nM each time.
Consider `CCOC(=O)C(=C1c2ccccc2CCc2ccccc21)c1cccc(NS(C)(=O)=O)c1` [Example 753, (10,11-Dihydro-dibenzo[a,d]cyclohepten-5-ylidene)-(3-methanesulfonylamino-phenyl)-acetic acid ethy lester], for which the Ki in assay [1] and in assay [2] was less than 500 nM each time.
Consider `CS(=O)(=O)Nc1cccc(C(CO)=C2c3ccccc3CCc3ccccc32)c1` [Example 755, N-{3-[1-(10,11-Dihydro-dibenzo[a,d]cyclohepten-5-ylidene)-2-hydroxy-ethyl]-phenyl}-methanesulfonamide], for which the Ki in assay [1] and in assay [2] was less than 500 nM each time.
Turning to `CCC(=C1c2ccccc2CCc2ccccc21)c1cccc(N)c1` [Example 760], the Ki in assay [1] is less than 10000 nM; in assay [2], less than 500 nM.
On the same counts, the results for `CC(=C1c2ccccc2CCc2ccccc21)c1cccc(N)c1` [Example 761] are less than 500 nM and less than 500 nM.
On the same counts, the results for `CS(=O)(=O)Nc1cccc(C(=C2c3ccccc3CCc3ccccc32)c2ccccc2)c1` [Example 762] are less than 500 nM and less than 500 nM.
On the same counts, the results for `CCC(=C1c2ccccc2CCc2ccccc21)c1cccc(NS(C)(=O)=O)c1` [Example 763] are less than 500 nM and less than 500 nM.
`CC(=C1c2ccccc2CCc2ccccc21)c1cccc(NS(C)(=O)=O)c1` [Example 765]: the Ki in assay [1] and in assay [2] was less than 500 nM in each case.
For the compound `Nc1cccc(C(=C2c3ccccc3CCc3ccccc32)c2ccc(-c3ccccc3)cc2)c1` [Example 766], the Ki was less than 10000 nM in assay [1] and less than 500 nM in assay [2].
For `CS(=O)(=O)Nc1cccc(C(=C2c3ccccc3CCc3ccccc32)c2ccc(-c3ccccc3)cc2)c1` [Example 767], in that order: less than 500 nM and less than 500 nM.
On the same counts, the results for `COc1ccc(C(=C2c3ccccc3CCc3ccccc32)c2cccc(NS(C)(=O)=O)c2)cc1` [Example 768] are less than 10000 nM and less than 500 nM.
On the same counts, the results for `CC(=C1c2ccc(C)cc2CCc2cc(C)ccc21)c1cccc(NS(C)(=O)=O)c1` [Example 771] are less than 500 nM and less than 500 nM.
Turning to `CCC(=C1c2ccc(C)cc2CCc2cc(C)ccc21)c1cccc(NS(C)(=O)=O)c1` [Example 772], the Ki in assay [1] and in assay [2] was less than 500 nM each time.
With `CC(=C1c2ccccc2CCc2cc(C)ccc21)c1cccc(NS(C)(=O)=O)c1` [Example 773], the Ki in assay [1] and in assay [2] was less than 500 nM in each case.
As to `CCC(=C1c2ccccc2CCc2cc(C)ccc21)c1cccc(NS(C)(=O)=O)c1` [Example 774], the inhibition constant (Ki) in assay [1] and in assay [2] was less than 500 nM each time.
On to `CC(=C1c2ccc(F)cc2CCc2cc(F)ccc21)c1cccc(NS(C)(=O)=O)c1` [Example 775], for which the Ki in assay [1] and in assay [2] was less than 500 nM in each case.
For the compound `CCC(=C1c2ccc(F)cc2CCc2cc(F)ccc21)c1cccc(NS(C)(=O)=O)c1` [Example 776], the Ki in assay [1] and in assay [2] was less than 500 nM throughout.
As for `CC(=C1c2ccc(Cl)cc2CCc2cc(Cl)ccc21)c1cccc(NS(C)(=O)=O)c1` [Example 777], the Ki in assay [1] and in assay [2] was less than 500 nM in each case.
Take `CCC(=C1c2ccc(Cl)cc2CCc2cc(Cl)ccc21)c1cccc(NS(C)(=O)=O)c1` [Example 778]: the Ki in assay [1] and in assay [2] was less than 500 nM in each case.
For the compound `CC/C(=C1\c2ccccc2CCc2cc(C)ccc21)c1cccc(NS(C)(=O)=O)c1` [Example 779], the Ki in assay [1] and in assay [2] was less than 500 nM in each case.
For `CC/C(=C1/c2ccccc2CCc2cc(C)ccc21)c1cccc(NS(C)(=O)=O)c1` [Example 780], the Ki in assay [1] and in assay [2] was less than 500 nM in each case.
For the compound `CC(C)CC(=C1c2ccccc2CCc2ccccc21)c1cccc(NS(C)(=O)=O)c1` [Example 783], the Ki in assay [1] and in assay [2] was less than 500 nM throughout.
In the case of `C/C(=C1\c2ccccc2COc2cc(C)ccc21)c1cccc(NS(C)(=O)=O)c1` [Example 784], the Ki in assay [1] and in assay [2] was less than 500 nM throughout.
As to `C/C(=C1\c2ccccc2COc2cc(C)c(Br)cc21)c1cccc(NS(C)(=O)=O)c1` [Example 785], the Ki in assay [1] and in assay [2] was less than 500 nM throughout.
As for `C/C(=C1/c2ccccc2COc2cc(C)ccc21)c1cccc(NS(C)(=O)=O)c1` [Example 786], the Ki in assay [1] and in assay [2] was less than 500 nM in each case.
Take `C/C(=C1\c2ccccc2CCc2c(F)cccc21)c1cccc(NS(C)(=O)=O)c1` [Example 787]: the Ki in assay [1] and in assay [2] was less than 500 nM throughout.
With `C/C(=C1/c2ccccc2COc2c(F)cccc21)c1cccc(NS(C)(=O)=O)c1` [Example 788], the Ki in assay [1] and in assay [2] was less than 500 nM each time.
As to `C/C(=C1\c2ccccc2COc2ccc(F)cc21)c1cccc(NS(C)(=O)=O)c1` [Example 789], the Ki in assay [1] and in assay [2] was less than 500 nM each time.
Turning to `C/C(=C1\c2cc(F)ccc2COc2ccccc21)c1cccc(NS(C)(=O)=O)c1` [Example 790], the Ki in assay [1] and in assay [2] was less than 500 nM each time.
For `C/C(=C1\c2ccccc2CCc2cc(Cl)ccc21)c1cccc(NS(C)(=O)=O)c1` [Example 793], the Ki in assay [1] and in assay [2] was less than 500 nM throughout.
Consider `C/C(=C1/c2ccccc2CCc2cc(Cl)ccc21)c1cccc(NS(C)(=O)=O)c1` [Example 794], for which the Ki in assay [1] and in assay [2] was less than 500 nM throughout.
Turning to `C/C(=C1\c2ccccc2COc2ccccc21)c1cccc(NS(C)(=O)=O)c1` [Example 795], the Ki in assay [1] and in assay [2] was less than 500 nM each time.
As for `C/C(=C1/c2ccccc2COc2ccccc21)c1cccc(NS(C)(=O)=O)c1` [Example 796], the Ki in assay [1] and in assay [2] was less than 500 nM in each case.
With `C/C(=C1/c2ccc(Cl)cc2COc2ccccc21)c1cccc(NS(C)(=O)=O)c1` [Example 797], the Ki in assay [1] and in assay [2] was less than 500 nM in each case.
On to `C/C(=C1\c2ccc(Cl)cc2COc2ccccc21)c1cccc(NS(C)(=O)=O)c1` [Example 798], for which the Ki in assay [1] and in assay [2] was less than 500 nM throughout.
With `CC/C(=C1\c2ccccc2COc2ccccc21)c1cccc(NS(C)(=O)=O)c1` [Example 799], the Ki in assay [1] and in assay [2] was less than 500 nM each time.
On to `CC/C(=C1/c2ccccc2COc2ccccc21)c1cccc(NS(C)(=O)=O)c1` [Example 800], for which the Ki in assay [1] and in assay [2] was less than 500 nM each time.

By Ki is commonly meant the equilibrium dissociation constant of an inhibitor or competing ligand from its target.
